According to patent US11661398B2, “Cellular transport system for transferring a sulfonic acid construct carrying a cargo into the cytoplasm of a cell” (Scientist of Fortune, S.A., priority 2017, dated 2023):
Peptide text beside a SMILES is read from it.

How the values were obtained:
TK090 = test: Complementation of NAD+ auxotrophic strain; type: cell-based, E. coli; conditions: for concentration needed to support growth as NAD+ source: TK090[pSsuABC, pPnGGT*]; for growth with compound as sole source of NAD+: spent MS minimal medium, 25 μM N-picolyl-sulfobutyramide, different plasmid combinations
Method: FIG. 27. Utilization of NAD^+ precursors. NAD^+ auxotrophic strain TK090 [pSsuABC; pPnGGT*] was grown in MS minimal medium containing 0.5% glucose, 1 mM MgSO4, 0.4 mM leucine, 0.5 mM IPTG, 100 ng ml^−1 aTc and varying concentrations of either 3-picolylamine (a) or nicotinic acid (b). […] Dots represent the average of three independent measurements with standard deviations shown as error bars.
Selection experiments with NAD^+ auxotrophic strains are prone to contamination with unwanted NAD^+ sources and therefore demand special preparation of the precultures and medium. For the precultures, all tested strains were incubated overnight in MS minimal medium supplemented with 0.5% glucose, 1 mM MgSO4, 0.4 mM L-leucine and 5 μM nicotinic acid. To guarantee complete consumption of nicotinic acid, precultures were then diluted 100-fold in MS minimal medium supplemented only with 0.5% glucose, 1 mM MgSO4 and 0.4 mM L-leucine, but no additional NAD^+ source. Following an overnight incubation period, NAD^+-deprived cells were washed twice in the same medium and used for growth assays.
To prepare the medium for final growth assays, MS minimal medium was supplemented with 0.5% glucose, 1 mM MgSO4, 0.4 mM L-leucine and 25 μM N-picolyl-sulfobutyramide (see below for description of synthesis). To remove all NAD^+ contaminants, the medium was inoculated overnight with strain TK090, which can utilize free NAD^+ precursors, but cannot take up or hydrolyze N-picolyl-sulfobutyramide due to the absence of SsuABC and PnGGT*. After an overnight incubation period, cells were separated from the medium by centrifugation and the supernatant was filtered using a Minisart 0.22 μm High Flow Syringe Filter (Sartorius, Goettingen, Germany). The filtered supernatant was then supplemented with the respective antibiotics and inducers and used for growth assays.

TK054 = test: Leucine auxotrophy complementation with peptide vector; type: cell-based, E. coli; conditions: 1 mM peptide, plasmid pACT3/6×His_PnGGT ΔN24, 0.5 mM IPTG, 37° C., 5 days or more
Method: (§1) LB Miller broth (Becton Dickinson, Sparks, Md., USA) was used as standard growth medium for bacterial cultures (Sambrook, 2001). For the preparation of competent cells, SOB medium was used (Hanahan, 1983). Unless stated otherwise, growth experiments in selective medium were carried out in M9 minimal medium (Sambrook, 2001) supplemented with 0.5% glucose, 1 μg mL^−1 thiamine, 0.5 mM IPTG and 1 mM alanyl-γ-glutamyl-leucine (>95% purity, custom synthesized by Pepscan, Lelystad, Netherlands). For growth experiments on solid medium Bacto Agar (Becton Dickinson) was added to a final concentration of 1.5%. Growth experiments in liquid medium were performed either in a Tecan Infinite 200 Pro plate reader (Tecan, Mannedorf, Switzerland) or in a Biolector Basic Microbiorector System (m2p-labs, Baesweiler, Germany). All growth experiments were performed at 37° C. […]
The possibility to express 6×His_PnGGT ΔN24 in the cytoplasm of E. coli and the enzyme's relaxed substrate specificity (Imaoka et al., 2010) opened up the possibility to selectively hydrolyze γ-glutamyl compounds within the cytoplasm. […] As a cargo, leucine was chosen, whose successful release could be easily detected by restoring growth to a leucine auxotrophic strain. […]

TK054 ΔpcnB = test: as above; type: cell-based, E. coli; conditions: 1 mM peptide, 6×His_PnGGT ΔN24 expressed, IPTG present
Method: as §1
To verify that the beneficial effects to growth with Ala-γ-Glu-Leu were caused by activity reducing mutations in pcnB, the entire gene was removed from the unmutated leucine auxotrophic selection strain, resulting in strain TK054 ΔpcnB. On M9 minimal medium containing 0.5% glucose and 1 mM Ala-γ-Glu-Leu as the only source of leucine, no growth of this strain was detected if the inducer IPTG was omitted (FIG. 6a). […]

TK082 = test: In vivo hydrolysis of sulfobutanoyl-p-nitroanilide and sulfobutanoyl-AMC; type: cell-based, E. coli
Method: Strain TK082 was transformed with plasmids as indicated in the text and grown at 37° C. in MS minimal medium supplemented with 0.5% glucose, 1 mM MgSO4 and 0.4 mM L-leucine to an OD600 of 0.5. At that stage, the synthesis of PnGGT* and/or SsuABC was induced for 2 hours by adding 0.5 mM IPTG and 100 ng mL^−1 aTc. Following this synthesis period, cells were washed in the same medium to remove proteins that had been released into the medium by cell lysis. After an additional centrifugation step, cells were resuspended in MS minimal medium supplemented with 0.5% glucose, 1 mM MgSO4, 0.4 mM L-leucine, 0.5 mM IPTG, 100 ng mL^−1 aTc and 0.5 mM sulfobutanoyl-p-nitroanilide or sulfobutanoyl-AMC (see below for description of synthesis) and incubated in a Tecan Infinite 200 Pro plate reader at 37° C. To monitor cell density and the release of 4-nitroaniline, absorbance was constantly measured at 600 nm and 410 nm. The release of AMC was monitored by measuring the fluorescence at λex=350 nm and λem=450 nm. To determine the influence of competition for the sulfonate transporter SsuABC, different concentrations of pentanesulfonate (Sigma Aldrich) were added to the medium.

BW25113 ΔleuB (TK080) = test: Growth on different sulfur sources; type: cell-based, E. coli; conditions: 1 mM sulfur source, minimal medium, 0.5% glucose, 0.4 mM leucine
Method: FIG. 21: Growth of E. coli on sulfonates. Strains TK080 (a; BW25113 ΔleuB) and TK082 (b; BW25113 ΔleuB ΔssuEADCB ΔtauD) were grown in MS minimal medium supplemented with 0.5% glucose, 0.4 mM L-leucine, 1 mM MgCl2 and 1 mM of a sulfur source. TK080 was able to use the majority of the tested sulfur sources with a similar efficiency as sulfate. […] Dots represent the average of three independent measurements with standard deviations shown as error bars.
For the experiments relating to the sulfonate based synthetic transport system, unless stated otherwise, growth experiments in selective medium were carried out in sulfur free MS minimal medium (4 mM citric acid, 1 mM MgCl2, 20 mM NH4Cl, 50 mM KH2PO4 and 1×NTA mix (10 μM nitrilotriacetic acid, 3 μM CaCl2, 3 μM FeCl3, 1 μM MnCl2, 0.3 μM ZnCl2, 0.3 μM H3B3, 0.3 μM CrC3, 0.3 μM COCl2, 0.3 μM CuCl2, 0.3 μM Ni2C, 0.3 μM Na2MoO4, 0.3 μM Na2SeO3)) supplemented with 0.5% glucose. MgSO4 (1 mM), MgCl2 (1 mM), L-leucine (0.4 mM), IPTG (0.5 mM), aTc (100 ng mL-1), nicotinic acid (various concentrations), 3-picolylamine (various concentrations) and sulfonates (various concentrations) as indicated in the text. […] Synthesis schemes for sulfobutanoyl-p-nitroanilide and other sulfonates are given below.
The sulfonate transporters SsuABC and TauABC transport a wide variety of sulfonate compounds (Eichhorn et al., 2000) and can thus be exploited for the present synthetic transport system. As such, the uptake and utilization of sulfobutanoyl-L-leucine was assessed. The leucine auxotrophic strain BW25113 ΔleuB was tested for growth in minimal medium supplemented with 0.5% glucose, 0.4 mM leucine, 0.4 mM isoleucine and 1 mM of a sulfur-containing compound as the sole sulfur source.

TK088[pSsuABC] = test: Growth of histidine auxotrophic strain in liquid medium; type: cell-based, E. coli; conditions: liquid MS minimal medium, 0.5 mM compound, pACT3 versus pPnGGT*
Method: FIG. 22: Identification of GGT* activity and refactoring of the ssuABC operon. (a) Cell free extracts of strain TK018 synthesizing either EcGGT, EcGGT D433N, PnGGT or PnGGT D405N were incubated with 2 mM of the substrates γ-glutamyl-p-nitroanilide or sulfobutanoyl-p-nitroanilide (5), respectively. The release of 4-nitroaniline was quantified by measuring the absorption at 410 nm. (b) Plasmid map of the three-dimensional RBS-library for refactoring the ssuABC operon using 144 RBS variants per gene. RBS library sequences are underlined. Arrows point towards the final RBS sequences observed in plasmid pSsuABC. […] (e) Growth of strain TK088[pSsuABC]transformed with the empty vector pACT3 (black circles) or plasmid pPnGGT* (white circles) in liquid MS minimal medium supplemented with 0.5% glucose, 1 mM MgSO4, 0.4 mM L-leucine, 0.5 mM IPTG, 100 ng ml^−1 aTc and 0.5 mM sulfobutanoyl-L-histidine. Bars and dots from panels (a), (d) and (e) represent the average of three independent measurements with standard deviations shown as error bars. […]

[1] = substrate: CC(C)C[C@H](NC(=O)CCCS(=O)(=O)O)C(=O)O; test: purified protein, by the assay type; conditions: other: kinetic studies cited in Example 11, conditions not given

## NCc1cccnc1 [3-picolylamine]
TK090; MS minimal medium
  concentration necessary to complement the NAD+ auxotrophy compared to nicotinic acid: 500 to 1000 fold
  concentration needed to support growth as NAD+ source: above 50 μM
TK090
  growth with compound as sole source of NAD+: no growth was observed

## CC(C)C[C@H](NC(=O)CC[C@H](NC(=O)[C@H](C)N)C(=O)O)C(=O)O [Ala-γ-Glu-Leu, alanyl-γ-glutamyl-leucine] (HELM PEPTIDE1{A.[gGlu].L}$$$$V2.0)
TK054
  growth with peptide as sole source of leucine: poor growth
TK054 ΔpcnB
  growth with peptide as sole source of leucine: grew rapidly

## O=C(CCCS(=O)(=O)[O-])NCc1cccnc1.[Na+] [N-picolyl-sulfobutyramide, N-(3-Pyridinylmethyl)sulfobutyramide sodium salt]
TK090
  growth with compound as sole source of NAD+: only observed when both the sulfonate transporter SsuABC and PnGGT* were synthesized simultaneously

## O=C(O)c1cccnc1 [nicotinic acid]
TK090; MS minimal medium
  concentration needed to support growth as NAD+ source: sub-micromolar concentrations

## CCCCCS(=O)(=O)O [pentanesulfonate, reference compound]
TK082; TK082[pSsuABC, pPnGGT*]
  effect of competitor on release of 4-nitroaniline from 0.5 mM sulfobutanoyl-p-nitroanilide: sufficient to slow down the release of 4-nitroaniline
  effect of competitor on release of AMC from 0.5 mM sulfobutanoyl-AMC: sufficient to slow down the release of AMC in the presence of SsuABC

## Cc1cc(=O)oc2cc(NC(=O)CCCS(=O)(=O)O)ccc12 [sulfobutanoyl-AMC, N-(4-Methyl-2-oxo-2H-1-benzopyran-7-yl)sulfobutyramide]
TK082; 0.5 mM compound, different plasmid combinations
  in vivo release of AMC from the compound: some release of the dye was detected in a strain expressing only PnGGT*
BW25113 ΔleuB (TK080)
  growth with compound as sole sulfur source: utilized with a lower efficiency

## O=C(CCCS(=O)(=O)O)N[C@@H](Cc1c[nH]cn1)C(=O)O [sulfobutanoyl-L-histidine]
BW25113 ΔleuB (TK080)
  growth with compound as sole sulfur source: comparable efficiencies
TK088[pSsuABC]
  growth with compound as sole histidine source: Entirely equivalent results
TK088[pSsuABC]; listed as sulfubutanoyl-L-histidine
  growth with compound as sole histidine source: grew significantly faster and to higher cell densities

B1: PnGGT ΔN24 D405N (Pseudomonas nitroreducens; D405N) (protein)
chain: MRGSHHHHHHGSACELTLDGGAVAAPDQYGAKVAAEILKKGGNAVDAAVATAFTLAVTYPEAGNIGGGGFMTLYVDGKPYFLDYREIAPKAATKTMYLNEKGEVIENLSLVGAKAAGVPGTVMGLWEAHQRFGKLKWSELLTPAIGYAQTGFKVADQQYQYRQDAIALFNGKTNFGDYFGTMKPGEVFKQPELAKTLERIADKGPDDFYKGETAKLLIAQMKQDGGLITSDDLVDYQAKWREPMRIDWQGNTLYTAPLPSSGGIALAQLIGIKEQRAADFKGVELNSAKYIHLLSEIEKRVFADRADYLGDPQFSKVPVAQLTDPKYIAKRAGEVNPDAISATEKVRPGLEPHQTTHFSIVDKDGNAVSNTYTLNWDFGSGVVVKGAGFLLNDEMDNFSSKPGVANAFGVVGSDANAIEPGKRMLSSMSPSIVTRDGHVSLVLGTPGGSRIFTSIFQVLNNVYDFHLPLEKAVAAQRVHHQLLPKDTIYYDAYAPLPGKVADELKAMGYTLEDQGWNMGDIQAIRVNGKALETASDPRGRGVGMVVKP
[1]
  Km: 734 µM
